From ChEMBL document CHEMBL3885881, “DrugMatrix”

Organism: Rattus norvegicus
Assay: DrugMatrix - Regimen: Daily Repeat
Format: toxicity, organism-based, Sprague-Dawley
Design: regimen Daily Repeat, gender Male, age 6-8 weeks
Details: in vivo, ip, route intraperitoneal, vehicle 100 % SALINE; for ABSOLUTE BASOPHIL / ABSOLUTE EOSINOPHIL / ABSOLUTE LYMPHOCYTE / ABSOLUTE MONOCYTE / ABSOLUTE SEGMENTED NEUTROPHIL / BASOPHIL / EOSINOPHIL / ERYTHROCYTE COUNT / HEMATOCRIT / HEMOGLOBIN / LEUKOCYTE COUNT / LYMPHOCYTE / MEAN CORPUSCULAR HEMOGLOBIN / MEAN CORPUSCULAR HEMOGLOBIN CONCENTRATION / MEAN CORPUSCULAR VOLUME / MONOCYTE / NEUTROPHIL / PLATELET COUNT: tissue Blood
[1] = 0 mg/kg, 120 h, dose level Control, time 5 day
[2] = 0 mg/kg, 120 h, tissue Plasma, dose level Control, time 5 day
[3] = 0 mg/kg, […], dose level Control, time 14 day
[4] = 0 mg/kg, […], dose level Control, time 28 day
[5] = 0 mg/kg, […], tissue Plasma, dose level Control, time 14 day
[6] = 0 mg/kg, […], tissue Plasma, dose level Control, time 28 day
[7] = 2 mg/kg, 120 h, dose level High, time 5 day
[8] = 2 mg/kg, 120 h, tissue Plasma, dose level High, time 5 day
[9] = 2 mg/kg, […], dose level High, time 14 day
[10] = 2 mg/kg, […], dose level High, time 28 day

CADMIUM DICHLORIDE
ABSOLUTE BASOPHIL [1]: 32 cells/µL
ABSOLUTE EOSINOPHIL [1]: 110 cells/µL
ABSOLUTE LYMPHOCYTE [1]: 6630 cells/µL
ABSOLUTE MONOCYTE [1]: 140 cells/µL
ABSOLUTE SEGMENTED NEUTROPHIL [1]: 1170 cells/µL
BASOPHIL [1]: 0.38%
EOSINOPHIL [1]: 1.28%
ERYTHROCYTE COUNT [1]: 7.45 x10E6/uL
HEMATOCRIT [1]: 45.74%
HEMOGLOBIN [1]: 14.72 G/DL
LEUKOCYTE COUNT [1]: 8.11 x10E3/uL
LYMPHOCYTE [1]: 81.3%
MEAN CORPUSCULAR HEMOGLOBIN [1]: 19.76 pg
MEAN CORPUSCULAR HEMOGLOBIN CONCENTRATION [1]: 32.16 G/DL
MEAN CORPUSCULAR VOLUME [1]: 61.38 fL
MONOCYTE [1]: 1.76%
NEUTROPHIL [1]: 14.9%
PLATELET COUNT [1]: 1322.4 x10E3/uL
ALANINE AMINOTRANSFERASE [2]: 25.8 u/L
ALBUMIN [2]: 3.64 G/DL
ASPARTATE AMINOTRANSFERASE [2]: 81.4 u/L
BLOOD UREA NITROGEN [2]: 14.4 mg/dL
CHOLESTEROL [2]: 69.2 mg/dL
CREATINE PHOSPHOKINASE [2]: 303.2 u/L
CREATININE [2]: 0.56 mg/dL
GLUCOSE [2]: 125.4 mg/dL
LACTATE DEHYDROGENASE [2]: 105.4 u/L
LIPASE [2]: 22.4 u/L
POTASSIUM [2]: 5.52 MEQ/L
SODIUM [2]: 147 MEQ/L
TOTAL BILIRUBIN [2]: 0.2 mg/dL
TOTAL PROTEIN [2]: 6.1 G/DL
URIC ACID [2]: 1.06 mg/dL
ABSOLUTE BASOPHIL [3]: 130 cells/µL
ABSOLUTE EOSINOPHIL [3]: 140 cells/µL
ABSOLUTE LYMPHOCYTE [3]: 13500 cells/µL
ABSOLUTE MONOCYTE [3]: 400 cells/µL
ABSOLUTE SEGMENTED NEUTROPHIL [3]: 2330 cells/µL
BASOPHIL [3]: 0.72%
EOSINOPHIL [3]: 0.86%
ERYTHROCYTE COUNT [3]: 7.74 x10E6/uL
HEMATOCRIT [3]: 45.98%
LEUKOCYTE COUNT [3]: 16.61 x10E3/uL
LYMPHOCYTE [3]: 81.34%
MEAN CORPUSCULAR HEMOGLOBIN [3]: 18 pg
MEAN CORPUSCULAR HEMOGLOBIN CONCENTRATION [3]: 30.22 G/DL
MEAN CORPUSCULAR VOLUME [3]: 59.4 fL
MONOCYTE [3]: 2.46%
NEUTROPHIL [3]: 14.14%
PLATELET COUNT [3]: 1445.5 x10E3/uL
ABSOLUTE BASOPHIL [4]: 91 cells/µL
ABSOLUTE EOSINOPHIL [4]: 110 cells/µL
ABSOLUTE LYMPHOCYTE [4]: 9910 cells/µL
ABSOLUTE MONOCYTE [4]: 210 cells/µL
ABSOLUTE SEGMENTED NEUTROPHIL [4]: 1560 cells/µL
BASOPHIL [4]: 0.77%
EOSINOPHIL [4]: 0.92%
ERYTHROCYTE COUNT [4]: 8.21 x10E6/uL
HEMATOCRIT [4]: 47.53%
HEMOGLOBIN [4]: 15.65 G/DL
LEUKOCYTE COUNT [4]: 11.91 x10E3/uL
LYMPHOCYTE [4]: 83.34%
MEAN CORPUSCULAR HEMOGLOBIN [4]: 19.07 pg
MEAN CORPUSCULAR HEMOGLOBIN CONCENTRATION [4]: 32.93 G/DL
MEAN CORPUSCULAR VOLUME [4]: 57.9 fL
MONOCYTE [4]: 1.68%
NEUTROPHIL [4]: 12.97%
PLATELET COUNT [4]: 1323.8 x10E3/uL
ALANINE AMINOTRANSFERASE [5]: 31.6 u/L
ALBUMIN [5]: 3.66 G/DL
ALKALINE PHOSPHATASE [5]: 228.6 u/L
ASPARTATE AMINOTRANSFERASE [5]: 79.6 u/L
BLOOD UREA NITROGEN [5]: 11.2 mg/dL
CHLORIDE [5]: 107 MEQ/L
CHOLESTEROL [5]: 57 mg/dL
CREATININE [5]: 0.5 mg/dL
GLUCOSE [5]: 124.4 mg/dL
LACTATE DEHYDROGENASE [5]: 106.4 u/L
LIPASE [5]: 24.4 u/L
PHOSPHORUS [5]: 10.52 mg/dL
POTASSIUM [5]: 6.34 MEQ/L
SODIUM [5]: 149.2 MEQ/L
TOTAL BILIRUBIN [5]: 0.2 mg/dL
TOTAL PROTEIN [5]: 6.48 G/DL
URIC ACID [5]: 0.94 mg/dL
ALANINE AMINOTRANSFERASE [6]: 30 u/L
ALBUMIN [6]: 3.71 G/DL
ALKALINE PHOSPHATASE [6]: 186.8 u/L
ASPARTATE AMINOTRANSFERASE [6]: 78.2 u/L
BLOOD UREA NITROGEN [6]: 14.2 mg/dL
CHOLESTEROL [6]: 44.9 mg/dL
CREATINE PHOSPHOKINASE [6]: 334.3 u/L
CREATININE [6]: 0.6 mg/dL
GLUCOSE [6]: 147.2 mg/dL
LACTATE DEHYDROGENASE [6]: 123.1 u/L
LIPASE [6]: 9.6 u/L
PHOSPHORUS [6]: 10.01 mg/dL
POTASSIUM [6]: 6.57 MEQ/L
SODIUM [6]: 149.5 MEQ/L
TOTAL BILIRUBIN [6]: 0.21 mg/dL
TOTAL PROTEIN [6]: 6.66 G/DL
URIC ACID [6]: 1.26 mg/dL
ABSOLUTE BASOPHIL [7]: 82 cells/µL
ABSOLUTE EOSINOPHIL [7]: 170 cells/µL
ABSOLUTE LYMPHOCYTE [7]: 6790 cells/µL
ABSOLUTE MONOCYTE [7]: 750 cells/µL
ABSOLUTE SEGMENTED NEUTROPHIL [7]: 6.49 CELLS/uL
BASOPHIL [7]: 0.52%
EOSINOPHIL [7]: 1.36%
ERYTHROCYTE COUNT [7]: 7.45 x10E6/uL
HEMATOCRIT [7]: 43.86%
HEMOGLOBIN [7]: 14.46 G/DL
LEUKOCYTE COUNT [7]: 14.43 x10E3/uL
LYMPHOCYTE [7]: 52.2%
MEAN CORPUSCULAR HEMOGLOBIN [7]: 19.4 pg
MEAN CORPUSCULAR HEMOGLOBIN CONCENTRATION [7]: 32.92 G/DL
MEAN CORPUSCULAR VOLUME [7]: 59.02 fL
MONOCYTE [7]: 5.12%
NEUTROPHIL [7]: 39.98%
PLATELET COUNT [7]: 1991.4 x10E3/uL
ALANINE AMINOTRANSFERASE [8]: 32 u/L
ALBUMIN [8]: 3.14 G/DL
ALKALINE PHOSPHATASE [8]: 100.2 u/L
ASPARTATE AMINOTRANSFERASE [8]: 134 u/L
BLOOD UREA NITROGEN [8]: 16.8 mg/dL
CHOLESTEROL [8]: 54.8 mg/dL
CREATINE PHOSPHOKINASE [8]: 243.4 u/L
CREATININE [8]: 0.44 mg/dL
GLUCOSE [8]: 120.4 mg/dL
LACTATE DEHYDROGENASE [8]: 161.2 u/L
LIPASE [8]: 76.6 u/L
PHOSPHORUS [8]: 11.2 mg/dL
POTASSIUM [8]: 6.38 MEQ/L
SODIUM [8]: 146 MEQ/L
TOTAL BILIRUBIN [8]: 0.2 mg/dL
TOTAL PROTEIN [8]: 5.32 G/DL
URIC ACID [8]: 1.7 mg/dL
ABSOLUTE BASOPHIL [9]: 180 cells/µL
ABSOLUTE EOSINOPHIL [9]: 86 cells/µL
ABSOLUTE LYMPHOCYTE [9]: 8270 cells/µL
ABSOLUTE MONOCYTE [9]: 890 cells/µL
ABSOLUTE SEGMENTED NEUTROPHIL [9]: 6.16 CELLS/uL
BASOPHIL [9]: 1.22%
EOSINOPHIL [9]: 0.6%
ERYTHROCYTE COUNT [9]: 7.03 x10E6/uL
HEMATOCRIT [9]: 40.98%
HEMOGLOBIN [9]: 13.48 G/DL
LEUKOCYTE COUNT [9]: 15.72 x10E3/uL
LYMPHOCYTE [9]: 52.14%
MEAN CORPUSCULAR HEMOGLOBIN [9]: 19.2 pg
MEAN CORPUSCULAR HEMOGLOBIN CONCENTRATION [9]: 32.92 G/DL
MEAN CORPUSCULAR VOLUME [9]: 58.34 fL
MONOCYTE [9]: 5.4%
NEUTROPHIL [9]: 39.7%
PLATELET COUNT [9]: 2275.2 x10E3/uL
ABSOLUTE BASOPHIL [10]: 270 cells/µL
ABSOLUTE EOSINOPHIL [10]: 150 cells/µL
ABSOLUTE LYMPHOCYTE [10]: 12500 cells/µL
ABSOLUTE MONOCYTE [10]: 620 cells/µL
ABSOLUTE SEGMENTED NEUTROPHIL [10]: 4220 cells/µL
BASOPHIL [10]: 1.34%
EOSINOPHIL [10]: 0.93%
ERYTHROCYTE COUNT [10]: 7.42 x10E6/uL
HEMATOCRIT [10]: 44.63%
LEUKOCYTE COUNT [10]: 17.89 x10E3/uL
LYMPHOCYTE [10]: 68.87%
MEAN CORPUSCULAR HEMOGLOBIN [10]: 18.83 pg
MEAN CORPUSCULAR HEMOGLOBIN CONCENTRATION [10]: 31.21 G/DL
MONOCYTE [10]: 3.41%
